Measurements from patent publication US20230113037A1 (Bayer Aktiengesellschaft, priority 2019, published 2023).
pIC50: −log10 of the molar value. Read-outs that look alike come from different tables or passages of the source.

Tests used:
AHR [1] = biological target: T1, AHR (Homo sapiens, UniProt P35869); test: In vitro assay 1: antagonism in human cell line (AHR transactivation, firefly luciferase reporter, kynurenic acid prestimulated); assay type: cell-based; conditions: AHR Antagonism Human IC50 [M]
T1 construct: U87 MG glioblastoma cells (ATCC #HTB-14) endogenously expressing AHR; endogenous in cells; host or cells: U87 MG glioblastoma cells (ATCC #HTB-14)
T1 sequence (P35869 11-848): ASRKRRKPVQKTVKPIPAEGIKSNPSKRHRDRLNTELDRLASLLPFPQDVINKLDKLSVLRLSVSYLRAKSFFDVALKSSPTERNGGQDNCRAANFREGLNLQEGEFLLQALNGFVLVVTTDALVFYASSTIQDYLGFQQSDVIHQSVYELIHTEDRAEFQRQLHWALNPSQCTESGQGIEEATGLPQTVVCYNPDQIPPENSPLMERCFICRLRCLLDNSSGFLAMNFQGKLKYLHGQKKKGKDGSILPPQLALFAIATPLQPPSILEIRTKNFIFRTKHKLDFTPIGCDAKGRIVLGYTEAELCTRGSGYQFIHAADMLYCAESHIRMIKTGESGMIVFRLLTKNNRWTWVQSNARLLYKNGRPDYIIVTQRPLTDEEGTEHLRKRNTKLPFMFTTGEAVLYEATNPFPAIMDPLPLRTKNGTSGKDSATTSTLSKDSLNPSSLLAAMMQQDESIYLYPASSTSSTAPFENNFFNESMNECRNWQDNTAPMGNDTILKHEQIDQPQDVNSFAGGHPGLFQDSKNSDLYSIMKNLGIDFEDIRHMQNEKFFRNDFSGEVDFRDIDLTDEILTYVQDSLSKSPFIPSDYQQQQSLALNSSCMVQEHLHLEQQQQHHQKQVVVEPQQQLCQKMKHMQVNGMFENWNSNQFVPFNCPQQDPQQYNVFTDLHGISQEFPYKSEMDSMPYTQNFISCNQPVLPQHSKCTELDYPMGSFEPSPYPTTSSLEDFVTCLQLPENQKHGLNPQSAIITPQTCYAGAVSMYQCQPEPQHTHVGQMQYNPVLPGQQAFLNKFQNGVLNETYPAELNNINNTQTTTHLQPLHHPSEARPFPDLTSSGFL
Method in brief: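 Antagonism is measured against kynurenic acid prestimulation in U87 MG glioblastoma cells carrying stable DRE-luciferase and Renilla reporters. Positive inhibition control: 150 μM kynurenic acid with 5 μM staurosporine. Values are normalized to controls; repeats are averaged or given as medians.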

AHR [2] = biological target: T2, AHR (Mus musculus, UniProt P30561); test: In vitro assay 3: antagonism in mouse cell line (AHR transactivation, firefly luciferase reporter, kynurenic acid prestimulated); assay type: cell-based
T2 sequence (P30561 1-848 P471L/N533S/M589L): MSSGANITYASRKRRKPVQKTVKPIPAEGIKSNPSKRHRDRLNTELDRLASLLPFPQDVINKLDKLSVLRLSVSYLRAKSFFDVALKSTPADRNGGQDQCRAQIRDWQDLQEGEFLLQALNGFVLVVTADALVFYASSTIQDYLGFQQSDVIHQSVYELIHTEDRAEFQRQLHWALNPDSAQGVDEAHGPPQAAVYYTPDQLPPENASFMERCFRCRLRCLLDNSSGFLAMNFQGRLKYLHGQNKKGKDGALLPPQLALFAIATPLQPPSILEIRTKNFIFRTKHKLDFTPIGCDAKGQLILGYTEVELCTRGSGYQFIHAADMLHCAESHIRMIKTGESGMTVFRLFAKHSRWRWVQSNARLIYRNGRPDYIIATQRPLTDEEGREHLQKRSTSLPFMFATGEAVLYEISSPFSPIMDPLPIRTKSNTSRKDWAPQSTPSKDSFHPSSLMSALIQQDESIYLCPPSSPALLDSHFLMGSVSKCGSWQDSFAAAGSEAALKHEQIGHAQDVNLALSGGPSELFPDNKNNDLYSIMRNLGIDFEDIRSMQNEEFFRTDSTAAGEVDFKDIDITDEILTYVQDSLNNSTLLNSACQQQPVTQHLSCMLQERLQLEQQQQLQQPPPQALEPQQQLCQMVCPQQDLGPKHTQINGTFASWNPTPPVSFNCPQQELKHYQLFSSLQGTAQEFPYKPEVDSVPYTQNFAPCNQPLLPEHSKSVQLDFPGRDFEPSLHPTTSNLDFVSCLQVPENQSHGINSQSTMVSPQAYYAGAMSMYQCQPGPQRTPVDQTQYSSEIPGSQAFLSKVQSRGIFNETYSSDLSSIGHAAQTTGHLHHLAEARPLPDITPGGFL
Method in brief: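 Luminescence from an AHR-dependent DRE-luciferase reporter, stably integrated in mouse cells, quantifies blockade of kynurenic acid-driven activation. Unstimulated cells mark maximal inhibition; normalization uses both control types, and multiply tested compounds carry mean or median values.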

[3] = mouse Hepa 1c1c7 cells, 200 μM kynurenic acid, 20 hours, read-out: AHR Antagonism Mouse IC50

Row | Structure (SMILES) | IC50 (AHR [1]) [M] | pIC50 (AHR [2]; [3]) | pIC50 (AHR [2]; read-out: AHR Antagonism Mouse IC50, mouse Hepa 1c1c7 cells, 200 μM kynurenic acid, 20 hours)
1 | CCC[C@@H](Nc1nc2ccccc2c2nc(-c3ccccc3OC(F)F)nn12)C(=O)NC [Example 477, N^2-{2-[2-(difluoromethoxy)phenyl][1,2,4]triazolo[1,5-c]quinazolin-5-yl}-N-methyl-D-norvalinamide] | 1.81e-08 | 8.84 | –
2 | CSc1ccccc1-c1nc2c3ccccc3nc(N[C@@H]3CCCCNC3=O)n2n1 [Example 478, (3R)-3-({2-[2-(methylsulfanyl)phenyl][1,2,4]triazolo[1,5-c]quinazolin-5-yl}amino)azepan-2-one] | 4.98e-08 | 8.52 | –
3 | O=C1NCCCC[C@H]1Nc1nc2ccccc2c2nc(-c3cncc(F)c3)nn12 [Example 479, (3R)-3-{[2-(5-fluoropyridin-3-yl)[1,2,4]triazolo[1,5-c]quinazolin-5-yl]amino}azepan-2-one] | 3.53e-08 | – | 7.48
4 | O=C1NCCCC[C@H]1Nc1nc2ccccc2c2nc(-c3cncc(Cl)c3)nn12 [Example 480, (3R)-3-{[2-(5-chloropyridin-3-yl)[1,2,4]triazolo[1,5-c]quinazolin-5-yl]amino}azepan-2-one] | 2.07e-08 | 7.83 | –
5 | O=C1NCCCC[C@@H]1Nc1nc2ccccc2c2nc(-c3ccncc3F)nn12 [Example 481, (3S)-3-{[2-(3-fluoropyridin-4-yl)[1,2,4]triazolo[1,5-c]quinazolin-5-yl]amino}azepan-2-one] | 1.02e-06 | 6.98 | –
6 | O=C1NCCC[C@H]1Nc1nc2ccccc2c2nc(-c3ccncc3F)nn12 [Example 482, (3R)-3-{[2-(3-fluoropyridin-4-yl)[1,2,4]triazolo[1,5-c]quinazolin-5-yl]amino}piperidin-2-one] | 2.23e-06 | 5.50 | –
7 | O=C1NCC[C@H]1Nc1nc2ccccc2c2nc(-c3ccncc3F)nn12 [Example 483, (3R)-3-{[2-(3-fluoropyridin-4-yl)[1,2,4]triazolo[1,5-c]quinazolin-5-yl]amino}pyrrolidin-2-one] | 1.45e-06 | 5.66 | –
8 | CC[C@@H](Nc1nc2ccccc2c2nc(-c3ccncc3F)nn12)C(N)=O [Example 484, (2R)-2-{[2-(3-fluoropyridin-4-yl)[1,2,4]triazolo[1,5-c]quinazolin-5-yl]amino}butanamide] | 9.06e-08 | 7.56 | –
9 | CCCCNC(=O)CNc1nc2ccccc2c2nc(-c3ccncc3F)nn12 [Example 485, N-butyl-N^2-[2-(3-fluoropyridin-4-yl)[1,2,4]triazolo[1,5-c]quinazolin-5-yl]glycinamide] | 7.54e-07 | 5.00 | –
10 | CCC[C@@H](Nc1nc2ccccc2c2nc(-c3ccncc3F)nn12)C(=O)NC [Example 486, N^2-[2-(3-fluoropyridin-4-yl)[1,2,4]triazolo[1,5-c]quinazolin-5-yl]-N-methyl-D-norvalinamide] | 3.34e-07 | 6.74 | –
11 | CCCNC(=O)[C@@H](C)Nc1nc2ccccc2c2nc(-c3ccncc3F)nn12 [Example 487, N^2-[2-(3-fluoropyridin-4-yl)[1,2,4]triazolo[1,5-c]quinazolin-5-yl]-N-propyl-D-alaninamide] | 3.26e-07 | 6.70 | –
12 | O=C1NCCCC[C@H]1Nc1nc2ccccc2c2nc(-c3cccnc3C(F)(F)F)nn12 [Example 488, (3R)-3-({2-[2-(trifluoromethyl)pyridin-3-yl][1,2,4]triazolo[1,5-c]quinazolin-5-yl}amino)azepan-2-one] | 6.4e-08 | 7.91 | –
13 | CC[C@@H](Nc1nc2ccccc2c2nc(-c3cccnc3C(F)(F)F)nn12)C(N)=O [Example 489, (2R)-2-({2-[2-(trifluoromethyl)pyridin-3-yl][1,2,4]triazolo[1,5-c]quinazolin-5-yl}amino)butanamide] | 4.24e-07 | 7.36 | –
14 | O=C1NCCCC[C@H]1Nc1nc2ccccc2c2nc(-c3cnccc3C(F)(F)F)nn12 [Example 490, (3R)-3-({2-[4-(trifluoromethyl)pyridin-3-yl][1,2,4]triazolo[1,5-c]quinazolin-5-yl}amino)azepan-2-one] | 4.25e-08 | 7.30 | –
15 | CC[C@@H](Nc1nc2ccccc2c2nc(-c3cnccc3C(F)(F)F)nn12)C(N)=O [Example 491, (2R)-2-({2-[4-(trifluoromethyl)pyridin-3-yl][1,2,4]triazolo[1,5-c]quinazolin-5-yl}amino)butanamide] | 9.72e-08 | 7.30 | –
16 | O=C1NCCCC[C@H]1Nc1nc2ccccc2c2nc(-c3cc(F)ccc3OC(F)(F)F)nn12 [Example 492, (3R)-3-({2-[5-fluoro-2-(trifluoromethoxy)phenyl][1,2,4]triazolo[1,5-c]quinazolin-5-yl}amino)azepan-2-one] | 2.22e-08 | 8.24 | –
17 | O=C1NCCCC[C@@H]1Nc1nc2ccccc2c2nc(-c3cc(F)ccc3OC(F)(F)F)nn12 [Example 493, (3S)-3-({2-[5-fluoro-2-(trifluoromethoxy)phenyl][1,2,4]triazolo[1,5-c]quinazolin-5-yl}amino)azepan-2-one] | > 2e-05 | 7.43 | –
18 | CCC[C@@H](Nc1nc2ccccc2c2nc(-c3cc(F)ccc3OC(F)(F)F)nn12)C(=O)NC [Example 494, N^2-{2-[5-fluoro-2-(trifluoromethoxy)phenyl][1,2,4]triazolo[1,5-c]quinazolin-5-yl}-N-methyl-D-norvalinamide] | 2.28e-07 | 7.95 | –
19 | CCCNC(=O)[C@@H](C)Nc1nc2ccccc2c2nc(-c3cc(F)ccc3OC(F)(F)F)nn12 [Example 495, N^2-{2-[5-fluoro-2-(trifluoromethoxy)phenyl][1,2,4]triazolo[1,5-c]quinazolin-5-yl}-N-propyl-D-alaninamide] | 7.03e-08 | 7.88 | –
20 | CC[C@@H](Nc1nc2ccccc2c2nc(-c3cc(F)ccc3OC(F)(F)F)nn12)C(N)=O [Example 496, (2R)-2-({2-[5-fluoro-2-(trifluoromethoxy)phenyl][1,2,4]triazolo[1,5-c]quinazolin-5-yl}amino)butanamide] | 4.66e-08 | 8.72 | –
21 | O=C1NCCCC[C@@H]1Nc1nc2ccccc2c2nc(-c3cc(Cl)ccc3OC(F)(F)F)nn12 [Example 498, (3S)-3-({2-[5-chloro-2-(trifluoromethoxy)phenyl][1,2,4]triazolo[1,5-c]quinazolin-5-yl}amino)azepan-2-one] | > 2e-05 | 6.15 | –
22 | O=C1NCCC[C@H]1Nc1nc2ccccc2c2nc(-c3cc(Cl)ccc3OC(F)(F)F)nn12 [Example 499, (3R)-3-({2-[5-chloro-2-(trifluoromethoxy)phenyl][1,2,4]triazolo[1,5-c]quinazolin-5-yl}amino)piperidin-2-one] | > 2e-05 | < 4.70 | –
23 | O=C1NCC[C@H]1Nc1nc2ccccc2c2nc(-c3cc(Cl)ccc3OC(F)(F)F)nn12 [Example 500, (3R)-3-({2-[5-chloro-2-(trifluoromethoxy)phenyl][1,2,4]triazolo[1,5-c]quinazolin-5-yl}amino)pyrrolidin-2-one] | > 2e-05 | 5.53 | –
